Like-named read-outs stand apart in the source and are kept apart here.
What was measured:
CDK2/Cyclin E1 = CDK2/Cyclin E1 (Homo sapiens, UniProt P24941); assay: NanoBRET live-cell target engagement, CDK2-NanoLuc/Cyclin E1 in HEK-293; assay type: binding; conditions: 10µM
CDK7 = CDK7 (Homo sapiens, UniProt P50613); assay: NanoBRET live-cell target engagement, NanoLuc-CDK7 in HEK-293; assay type: binding; conditions: 10µM
CDK12/Cyclin K = CDK12/Cyclin K (Homo sapiens, UniProt Q9NYV4); assay: NanoBRET live-cell target engagement, CDK12-NanoLuc/Cyclin K in HEK-293; assay type: binding; conditions: 10µM
CDK10/Cyclin L2 = CDK10/Cyclin L2 (Homo sapiens, UniProt Q15131); assay: NanoBRET live-cell target engagement, CDK10-NanoLuc/Cyclin L2 in HEK-293; conditions: 10µM
CDK5/CDK5R1 = CDK5/CDK5R1 (Homo sapiens, UniProt Q00535); assay: NanoBRET live-cell target engagement, CDK5-NanoLuc/CDK5R1 in HEK-293; assay type: binding; conditions: 10µM
CDK17/Cyclin Y = CDK17/Cyclin Y (Homo sapiens, UniProt Q00537); assay: NanoBRET live-cell target engagement, CDK17-NanoLuc/Cyclin Y in HEK-293; assay type: binding; conditions: 10µM
CDK15/Cyclin Y = CDK15/Cyclin Y (Homo sapiens, UniProt Q96Q40); assay: NanoBRET live-cell target engagement, NanoLuc-CDK15/Cyclin Y in HEK-293; assay type: binding; conditions: 10µM
CDK3/Cyclin E1 = CDK3/Cyclin E1 (Homo sapiens, UniProt Q00526); assay: NanoBRET live-cell target engagement, CDK3-NanoLuc/Cyclin E1 in HEK-293; assay type: binding; conditions: 10µM
CDK11A/Cyclin L2 = target: T1, CDK11A/Cyclin L2 (Homo sapiens, UniProt Q9UQ88); assay: NanoBRET live-cell target engagement, CDK11A-NanoLuc/Cyclin L2 in HEK-293; assay type: binding; conditions: 10µM
T1 sequence (Q9UQ88 1-783): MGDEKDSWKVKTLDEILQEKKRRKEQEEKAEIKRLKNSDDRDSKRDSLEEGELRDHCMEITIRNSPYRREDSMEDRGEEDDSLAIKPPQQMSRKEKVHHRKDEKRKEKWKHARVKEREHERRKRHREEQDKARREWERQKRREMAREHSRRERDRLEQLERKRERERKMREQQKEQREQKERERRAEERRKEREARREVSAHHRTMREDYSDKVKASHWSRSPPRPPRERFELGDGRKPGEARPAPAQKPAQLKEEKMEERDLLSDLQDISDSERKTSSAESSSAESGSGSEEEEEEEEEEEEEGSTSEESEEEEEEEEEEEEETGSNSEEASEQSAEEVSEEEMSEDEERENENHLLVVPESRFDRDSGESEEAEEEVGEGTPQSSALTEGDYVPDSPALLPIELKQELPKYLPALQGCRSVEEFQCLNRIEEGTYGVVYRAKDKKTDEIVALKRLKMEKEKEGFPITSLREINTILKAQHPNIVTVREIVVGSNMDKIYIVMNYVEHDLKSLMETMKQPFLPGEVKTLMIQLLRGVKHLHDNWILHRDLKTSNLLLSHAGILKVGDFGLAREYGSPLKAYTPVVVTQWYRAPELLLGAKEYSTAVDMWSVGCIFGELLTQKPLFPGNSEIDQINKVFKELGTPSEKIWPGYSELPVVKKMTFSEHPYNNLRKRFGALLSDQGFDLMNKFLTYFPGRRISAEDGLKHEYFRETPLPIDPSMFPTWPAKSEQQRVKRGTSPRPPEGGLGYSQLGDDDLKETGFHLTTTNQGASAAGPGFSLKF

CDK4/Cyclin D1 = CDK4/Cyclin D1 (Homo sapiens, UniProt P11802); assay: NanoBRET live-cell target engagement, NanoLuc-CDK4/Cyclin D1 in HEK-293; assay type: binding; conditions: 10µM
CDK1/Cyclin E1 = CDK1/Cyclin E1 (Homo sapiens, UniProt P06493); assay: NanoBRET live-cell target engagement, CDK1-NanoLuc/Cyclin E1 in HEK-293; assay type: binding; conditions: 10µM
CDK8/Cyclin C = CDK8/Cyclin C (Homo sapiens, UniProt P49336); assay: NanoBRET live-cell target engagement, NanoLuc-CDK8/Cyclin C in HEK-293; assay type: binding; conditions: for IC50: read-out: CDK8/C IC50
CDK19/Cyclin C = CDK19/Cyclin C (Homo sapiens, UniProt Q9BWU1); assay: NanoBRET live-cell target engagement, NanoLuc-CDK19/Cyclin C in HEK-293
CDK20/Cyclin H = CDK20/Cyclin H (Homo sapiens, UniProt Q8IZL9); assay: NanoBRET live-cell target engagement, NanoLuc-CDK20/Cyclin H in HEK-293; assay type: binding; conditions: 10µM
CDK13/Cyclin K = CDK13/Cyclin K (Homo sapiens, UniProt Q14004); assay: NanoBRET live-cell target engagement, CDK13-NanoLuc/Cyclin K in HEK-293; assay type: binding; conditions: 10µM
CDK11B/Cyclin L2 = CDK11B/Cyclin L2 (Homo sapiens, UniProt P21127); assay: NanoBRET live-cell target engagement, CDK11B-NanoLuc/Cyclin L2 in HEK-293; assay type: binding; conditions: 10µM
CDK14/Cyclin Y = CDK14/Cyclin Y (Homo sapiens, UniProt O94921); assay: NanoBRET live-cell target engagement, CDK14-NanoLuc/Cyclin Y in HEK-293; assay type: binding; conditions: 10µM
CDK18/Cyclin Y = CDK18/Cyclin Y (Homo sapiens, UniProt Q07002); assay: NanoBRET live-cell target engagement, CDK18-NanoLuc/Cyclin Y in HEK-293; assay type: binding; conditions: 10µM
CDK16/Cyclin Y = CDK16/Cyclin Y (Homo sapiens, UniProt Q00536); assay: NanoBRET live-cell target engagement, CDK16-NanoLuc/Cyclin Y in HEK-293; assay type: binding; conditions: 10µM
CDK9/Cyclin K = CDK9/Cyclin K (Homo sapiens, UniProt P50750); assay: NanoBRET live-cell target engagement, NanoLuc-CDK9/Cyclin K in HEK-293; assay type: binding; conditions: 10µM
CDK6/Cyclin D1 = CDK6/Cyclin D1 (Homo sapiens, UniProt Q00534); assay: NanoBRET live-cell target engagement, NanoLuc-CDK6/Cyclin D1 in HEK-293; assay type: binding; conditions: 10µM
Chain of CDK6/Cyclin D1 (Q00534 whole entry): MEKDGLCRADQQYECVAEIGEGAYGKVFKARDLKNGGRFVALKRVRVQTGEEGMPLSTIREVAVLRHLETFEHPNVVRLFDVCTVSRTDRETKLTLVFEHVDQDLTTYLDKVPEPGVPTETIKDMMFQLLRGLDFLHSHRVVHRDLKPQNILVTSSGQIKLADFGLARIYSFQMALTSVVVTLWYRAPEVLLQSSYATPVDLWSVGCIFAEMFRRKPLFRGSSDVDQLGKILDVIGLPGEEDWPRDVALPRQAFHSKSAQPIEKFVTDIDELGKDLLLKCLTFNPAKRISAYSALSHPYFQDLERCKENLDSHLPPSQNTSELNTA
Chain of CDK6/Cyclin D1 (P24385 whole entry partner): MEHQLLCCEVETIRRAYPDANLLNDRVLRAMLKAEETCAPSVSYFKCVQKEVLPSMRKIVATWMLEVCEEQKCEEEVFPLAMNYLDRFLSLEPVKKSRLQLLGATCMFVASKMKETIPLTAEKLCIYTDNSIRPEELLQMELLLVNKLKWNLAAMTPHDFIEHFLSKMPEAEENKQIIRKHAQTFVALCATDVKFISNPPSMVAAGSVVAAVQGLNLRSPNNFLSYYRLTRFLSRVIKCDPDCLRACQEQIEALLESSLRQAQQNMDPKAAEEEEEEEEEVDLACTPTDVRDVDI

Chain of CDK7 (P50613 whole entry): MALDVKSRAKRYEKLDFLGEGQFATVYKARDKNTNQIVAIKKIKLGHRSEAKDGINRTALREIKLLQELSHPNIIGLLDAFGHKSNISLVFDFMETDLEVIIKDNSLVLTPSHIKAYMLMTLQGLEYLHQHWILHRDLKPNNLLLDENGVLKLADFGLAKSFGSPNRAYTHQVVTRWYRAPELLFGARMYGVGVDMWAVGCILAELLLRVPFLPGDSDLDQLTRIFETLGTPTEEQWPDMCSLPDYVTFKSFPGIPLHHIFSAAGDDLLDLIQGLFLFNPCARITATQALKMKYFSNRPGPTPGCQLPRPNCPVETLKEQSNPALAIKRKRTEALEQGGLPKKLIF
Chain of CDK9/Cyclin K (P50750 whole entry): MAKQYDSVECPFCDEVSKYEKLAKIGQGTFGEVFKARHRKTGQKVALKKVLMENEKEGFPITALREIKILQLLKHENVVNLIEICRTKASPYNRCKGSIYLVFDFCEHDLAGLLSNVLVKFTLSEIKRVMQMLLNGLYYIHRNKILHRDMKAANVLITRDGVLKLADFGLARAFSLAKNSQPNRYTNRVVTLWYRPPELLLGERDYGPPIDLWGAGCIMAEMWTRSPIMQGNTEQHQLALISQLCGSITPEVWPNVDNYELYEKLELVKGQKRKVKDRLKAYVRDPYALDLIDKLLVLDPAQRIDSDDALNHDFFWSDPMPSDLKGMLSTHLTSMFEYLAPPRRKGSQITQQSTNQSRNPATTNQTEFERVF
Chain of CDK9/Cyclin K (O75909 whole entry partner): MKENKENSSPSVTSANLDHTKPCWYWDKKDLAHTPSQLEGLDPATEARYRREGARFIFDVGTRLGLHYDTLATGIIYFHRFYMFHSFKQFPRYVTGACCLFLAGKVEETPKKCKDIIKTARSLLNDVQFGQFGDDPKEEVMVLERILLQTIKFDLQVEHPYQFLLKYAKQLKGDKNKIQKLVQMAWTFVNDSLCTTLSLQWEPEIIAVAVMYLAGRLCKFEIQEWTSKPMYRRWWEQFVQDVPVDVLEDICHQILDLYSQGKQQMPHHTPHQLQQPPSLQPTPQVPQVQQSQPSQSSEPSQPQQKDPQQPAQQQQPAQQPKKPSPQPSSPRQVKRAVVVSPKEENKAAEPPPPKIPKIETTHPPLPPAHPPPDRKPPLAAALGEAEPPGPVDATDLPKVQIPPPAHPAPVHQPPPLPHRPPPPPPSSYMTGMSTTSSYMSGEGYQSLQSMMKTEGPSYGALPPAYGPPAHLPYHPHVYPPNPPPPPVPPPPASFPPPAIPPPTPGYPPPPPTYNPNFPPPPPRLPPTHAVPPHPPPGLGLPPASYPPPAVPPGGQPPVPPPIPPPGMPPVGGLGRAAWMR
Chain of CDK13/Cyclin K (O75909 whole entry): as the sequence (O75909 whole entry partner) above
Chain of CDK13/Cyclin K (Q14004 other isoform, or with tags, fused parts or gaps): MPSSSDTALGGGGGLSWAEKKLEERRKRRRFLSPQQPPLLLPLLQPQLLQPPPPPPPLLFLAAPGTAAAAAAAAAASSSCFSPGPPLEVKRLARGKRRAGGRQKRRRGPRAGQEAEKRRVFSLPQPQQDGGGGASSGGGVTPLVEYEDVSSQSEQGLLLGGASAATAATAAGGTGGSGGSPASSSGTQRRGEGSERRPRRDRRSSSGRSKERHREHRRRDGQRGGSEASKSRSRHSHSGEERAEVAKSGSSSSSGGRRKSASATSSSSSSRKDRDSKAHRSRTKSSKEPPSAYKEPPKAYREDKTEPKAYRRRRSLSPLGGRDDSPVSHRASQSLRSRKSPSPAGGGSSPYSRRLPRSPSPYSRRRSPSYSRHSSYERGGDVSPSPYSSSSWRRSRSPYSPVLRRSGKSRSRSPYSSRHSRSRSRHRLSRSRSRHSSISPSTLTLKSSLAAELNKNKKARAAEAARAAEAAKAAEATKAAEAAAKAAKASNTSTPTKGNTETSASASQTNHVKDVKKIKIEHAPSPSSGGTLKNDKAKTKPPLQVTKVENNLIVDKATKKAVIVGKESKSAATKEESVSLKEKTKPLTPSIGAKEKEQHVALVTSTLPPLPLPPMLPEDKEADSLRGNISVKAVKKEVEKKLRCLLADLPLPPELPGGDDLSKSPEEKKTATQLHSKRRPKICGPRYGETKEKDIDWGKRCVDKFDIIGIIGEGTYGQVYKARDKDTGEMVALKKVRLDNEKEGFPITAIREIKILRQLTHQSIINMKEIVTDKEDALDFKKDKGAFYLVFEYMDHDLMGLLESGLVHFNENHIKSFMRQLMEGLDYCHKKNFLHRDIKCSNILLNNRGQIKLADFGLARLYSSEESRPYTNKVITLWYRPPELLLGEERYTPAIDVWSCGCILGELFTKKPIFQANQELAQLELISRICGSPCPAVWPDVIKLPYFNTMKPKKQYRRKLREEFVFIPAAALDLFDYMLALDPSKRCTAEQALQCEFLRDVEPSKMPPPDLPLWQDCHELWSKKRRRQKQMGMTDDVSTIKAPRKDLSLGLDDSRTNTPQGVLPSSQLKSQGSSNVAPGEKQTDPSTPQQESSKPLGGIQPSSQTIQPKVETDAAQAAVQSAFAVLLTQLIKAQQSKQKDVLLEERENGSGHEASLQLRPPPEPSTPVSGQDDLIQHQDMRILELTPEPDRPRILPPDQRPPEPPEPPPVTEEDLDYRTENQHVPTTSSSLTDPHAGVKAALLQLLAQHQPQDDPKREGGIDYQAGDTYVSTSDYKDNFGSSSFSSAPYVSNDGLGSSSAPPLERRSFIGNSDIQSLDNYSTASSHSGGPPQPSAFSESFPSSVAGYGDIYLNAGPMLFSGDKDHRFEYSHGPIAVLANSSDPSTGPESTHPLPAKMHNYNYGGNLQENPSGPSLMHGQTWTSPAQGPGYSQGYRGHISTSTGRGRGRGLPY
Chain of CDK4/Cyclin D1 (P11802 whole entry): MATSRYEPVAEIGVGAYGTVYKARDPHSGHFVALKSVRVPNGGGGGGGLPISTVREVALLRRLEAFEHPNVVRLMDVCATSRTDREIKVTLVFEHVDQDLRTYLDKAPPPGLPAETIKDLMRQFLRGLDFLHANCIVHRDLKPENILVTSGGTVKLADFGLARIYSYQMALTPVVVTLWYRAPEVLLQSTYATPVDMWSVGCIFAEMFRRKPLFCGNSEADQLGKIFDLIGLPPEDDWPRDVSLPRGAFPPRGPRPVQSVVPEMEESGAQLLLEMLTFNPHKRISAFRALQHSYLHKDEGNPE
Chain of CDK4/Cyclin D1 (P24385 whole entry partner): as the sequence (P24385 whole entry partner) above
Chain of CDK5/CDK5R1 (Q00535 whole entry): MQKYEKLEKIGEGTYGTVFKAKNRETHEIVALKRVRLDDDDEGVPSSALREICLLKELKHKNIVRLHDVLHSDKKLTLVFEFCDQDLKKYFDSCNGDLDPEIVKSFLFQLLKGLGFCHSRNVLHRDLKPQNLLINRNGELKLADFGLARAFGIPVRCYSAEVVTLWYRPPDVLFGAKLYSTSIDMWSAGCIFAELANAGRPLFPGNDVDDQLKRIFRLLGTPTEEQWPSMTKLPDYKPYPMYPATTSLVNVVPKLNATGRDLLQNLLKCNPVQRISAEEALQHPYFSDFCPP
Chain of CDK5/CDK5R1 (Q15078 whole entry partner): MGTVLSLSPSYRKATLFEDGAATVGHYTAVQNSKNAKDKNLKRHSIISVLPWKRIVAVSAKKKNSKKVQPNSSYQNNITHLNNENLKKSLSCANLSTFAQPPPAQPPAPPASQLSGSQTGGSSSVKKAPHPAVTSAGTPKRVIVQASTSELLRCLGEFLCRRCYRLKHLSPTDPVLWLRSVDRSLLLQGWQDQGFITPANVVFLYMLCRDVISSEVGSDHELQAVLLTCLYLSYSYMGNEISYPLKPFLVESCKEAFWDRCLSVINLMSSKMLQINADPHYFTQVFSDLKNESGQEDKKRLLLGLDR
Chain of CDK10/Cyclin L2 (Q15131 whole entry): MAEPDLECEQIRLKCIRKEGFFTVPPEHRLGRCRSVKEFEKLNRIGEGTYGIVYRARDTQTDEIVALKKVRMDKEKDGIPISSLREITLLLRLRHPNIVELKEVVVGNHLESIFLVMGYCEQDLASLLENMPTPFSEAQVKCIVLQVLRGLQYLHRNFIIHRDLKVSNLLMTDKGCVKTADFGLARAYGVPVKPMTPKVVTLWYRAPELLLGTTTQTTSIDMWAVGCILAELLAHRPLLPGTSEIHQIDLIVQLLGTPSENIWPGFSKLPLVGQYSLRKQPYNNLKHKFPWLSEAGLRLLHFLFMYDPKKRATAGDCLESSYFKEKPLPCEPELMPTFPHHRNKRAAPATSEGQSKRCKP

Cc1c(Br)c(Br)c2c3c1nc(N1CCNCC1)n3CCC2.Cl [SEL 120-34A]
CDK2/E1 Inhibition at 10µM (%) (CDK2/Cyclin E1; average of experiments): 22.7% | CDK2/E1 Inhibition at 10µM (%) (CDK2/Cyclin E1; independent experiment 1): 24.3% | CDK2/E1 Inhibition at 10µM (%) (CDK2/Cyclin E1; independent experiment 2): 21.2% | CDK7 Inhibition at 10µM (%) (CDK7; average of experiments): 37.0% | CDK7 Inhibition at 10µM (%) (CDK7; independent experiment 1): 34.4% | CDK7 Inhibition at 10µM (%) (CDK7; independent experiment 2): 39.7% | CDK12/K Inhibition at 10µM (%) (CDK12/Cyclin K; average of experiments): 44.4% | CDK12/K Inhibition at 10µM (%) (CDK12/Cyclin K; independent experiment 1): 40.8% | CDK12/K Inhibition at 10µM (%) (CDK12/Cyclin K; independent experiment 2): 48.0% | CDK10/L2 Inhibition at 10µM (%) (CDK10/Cyclin L2; average of experiments): 33.9% | CDK10/L2 Inhibition at 10µM (%) (CDK10/Cyclin L2; independent experiment 1): 26.3% | CDK10/L2 Inhibition at 10µM (%) (CDK10/Cyclin L2; independent experiment 2): 41.4% | CDK5/CDK5R1 Inhibition at 10µM (%) (CDK5/CDK5R1; average of experiments): 46.5% | CDK5/CDK5R1 Inhibition at 10µM (%) (CDK5/CDK5R1; independent experiment 1): 31.2% | CDK5/CDK5R1 Inhibition at 10µM (%) (CDK5/CDK5R1; independent experiment 2): 61.8% | CDK17/Y Inhibition at 10µM (%) (CDK17/Cyclin Y; average of experiments): 38.7% | CDK17/Y Inhibition at 10µM (%) (CDK17/Cyclin Y; independent experiment 1): 45.5% | CDK17/Y Inhibition at 10µM (%) (CDK17/Cyclin Y; independent experiment 2): 32.0% | CDK15/Y Inhibition at 10µM (%) (CDK15/Cyclin Y; average of experiments): 37.3% | CDK15/Y Inhibition at 10µM (%) (CDK15/Cyclin Y; independent experiment 1): 38.3% | CDK15/Y Inhibition at 10µM (%) (CDK15/Cyclin Y; independent experiment 2): 36.3% | CDK3/E1 Inhibition at 10µM (%) (CDK3/Cyclin E1; average of experiments): 33.7% | CDK3/E1 Inhibition at 10µM (%) (CDK3/Cyclin E1; independent experiment 1): 26.5% | CDK3/E1 Inhibition at 10µM (%) (CDK3/Cyclin E1; independent experiment 2): 40.8% | CDK11a/L2 Inhibition at 10µM (%) (CDK11A/Cyclin L2; average of experiments): 43.7% | CDK11a/L2 Inhibition at 10µM (%) (CDK11A/Cyclin L2; independent experiment 1): 31.1% | CDK11a/L2 Inhibition at 10µM (%) (CDK11A/Cyclin L2; independent experiment 2): 56.3% | CDK4/D1 Inhibition at 10µM (%) (CDK4/Cyclin D1; average of experiments): 37.4% | CDK4/D1 Inhibition at 10µM (%) (CDK4/Cyclin D1; independent experiment 1): 12.4% | CDK4/D1 Inhibition at 10µM (%) (CDK4/Cyclin D1; independent experiment 2): 62.4% | CDK1/E1 Inhibition at 10µM (%) (CDK1/Cyclin E1; average of experiments): 37.6% | CDK1/E1 Inhibition at 10µM (%) (CDK1/Cyclin E1; independent experiment 1): 21.0% | CDK1/E1 Inhibition at 10µM (%) (CDK1/Cyclin E1; independent experiment 2): 54.1% | CDK8/C Inhibition at 10µM (%) (CDK8/Cyclin C; average of experiments): 97.3% | CDK8/C Inhibition at 10µM (%) (CDK8/Cyclin C; independent experiment 1): 96.1% | CDK8/C Inhibition at 10µM (%) (CDK8/Cyclin C; independent experiment 2): 98.6% | IC50 (CDK8/Cyclin C; average (± SEM where n=3)): 75 nM | IC50 (CDK8/Cyclin C; independent experiment 1): 73 nM | IC50 (CDK8/Cyclin C; independent experiment 2): 77 nM | CDK19/C Inhibition at 10µM (%) (CDK19/Cyclin C; average of experiments): 99.2% | CDK19/C Inhibition at 10µM (%) (CDK19/Cyclin C; independent experiment 1): 96.4% | CDK19/C Inhibition at 10µM (%) (CDK19/Cyclin C; independent experiment 2): 102.0% | IC50 (CDK19/Cyclin C; read-out: CDK19/C IC50, independent experiment 1): 120 nM | IC50 (CDK19/Cyclin C; read-out: CDK19/C IC50, independent experiment 2): 140 nM | IC50 (CDK19/Cyclin C; read-out: CDK19/Y IC50, average (± SEM where n=3)): 130 nM | CDK20/H Inhibition at 10µM (%) (CDK20/Cyclin H; independent experiment 1): 7.8% | CDK20/H Inhibition at 10µM (%) (CDK20/Cyclin H; independent experiment 2): 31.3% | CDK13/K Inhibition at 10µM (%) (CDK13/Cyclin K; average of experiments): 36.8% | CDK13/K Inhibition at 10µM (%) (CDK13/Cyclin K; independent experiment 1): 29.4% | CDK13/K Inhibition at 10µM (%) (CDK13/Cyclin K; independent experiment 2): 44.2% | CDK11b/L2 Inhibition at 10µM (%) (CDK11B/Cyclin L2; average of experiments): 38.1% | CDK11b/L2 Inhibition at 10µM (%) (CDK11B/Cyclin L2; independent experiment 1): 35.0% | CDK11b/L2 Inhibition at 10µM (%) (CDK11B/Cyclin L2; independent experiment 2): 41.2% | CDK14/Y Inhibition at 10µM (%) (CDK14/Cyclin Y; average of experiments): 26.1% | CDK14/Y Inhibition at 10µM (%) (CDK14/Cyclin Y; independent experiment 1): 21.7% | CDK14/Y Inhibition at 10µM (%) (CDK14/Cyclin Y; independent experiment 2): 30.4% | CDK18/Y Inhibition at 10µM (%) (CDK18/Cyclin Y; average of experiments): 39.4% | CDK18/Y Inhibition at 10µM (%) (CDK18/Cyclin Y; independent experiment 1): 47.0% | CDK18/Y Inhibition at 10µM (%) (CDK18/Cyclin Y; independent experiment 2): 31.9% | CDK16/Y Inhibition at 10µM (%) (CDK16/Cyclin Y; independent experiment 1): 51.2% | CDK16/Y Inhibition at 10µM (%) (CDK16/Cyclin Y; independent experiment 2): 12.7% | CDK9/K Inhibition at 10µM (%) (CDK9/Cyclin K; average of experiments): 71.2% | CDK9/K Inhibition at 10µM (%) (CDK9/Cyclin K; independent experiment 1): 54.9% | CDK9/K Inhibition at 10µM (%) (CDK9/Cyclin K; independent experiment 2): 87.6% | CDK6/D1 Inhibition at 10µM (%) (CDK6/Cyclin D1; average of experiments): 31.6% | CDK6/D1 Inhibition at 10µM (%) (CDK6/Cyclin D1; independent experiment 1): 10.1% | CDK6/D1 Inhibition at 10µM (%) (CDK6/Cyclin D1; independent experiment 2): 53.1%
